Results on 31 molecules are retold here after US20160326143A1, “COMPOUNDS AND USES” (AstraZeneca AB, priority 2015, published 2016).

Recombinant human LTC4 synthase, sequence (Q16873 whole entry): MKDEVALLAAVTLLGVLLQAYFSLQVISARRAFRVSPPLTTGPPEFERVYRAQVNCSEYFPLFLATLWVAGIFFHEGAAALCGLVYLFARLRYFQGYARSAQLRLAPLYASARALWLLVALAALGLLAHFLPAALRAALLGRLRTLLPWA

The test deals with Recombinant human LTC4 synthase (Homo sapiens (Human), UniProt Q16873). Kind of test: In vitro hLTC4 synthase enzyme assay (Test A). The note with it: Test A (Examples 1-61); substrate LTA4, LTC4 detected by HTRF; median of at least two determinations. Format: biochemical. Here is the method:
In Vitro hLTC4 Synthase Enzyme Assay (Test A)
Recombinant human LTC4 synthase is expressed in Piccia pastoralis and the purified enzyme is dissolved in 25 mM tris-buffer pH 7.8 supplemented with 0.1 mM glutathione (GSH) and stored at −80° C.
The buffer is used as background. Runs are performed in duplicates.
The reaction is stopped after 1 min by addition of double the reaction volume of a stop solution (MeOH:H2O:acetic acid 70:30:1).
After 15 fold dilution in PBS, LTC4 formation is detected with LTC4 HTRF kit (Cisbio, cat. No 64LC4PEC) and a fluorescence reader. Typically 6 μL of sample is mixed with 3 μL of each of the HTRF reagents d2 and k and analyzed as described in the kit manual.
Background: TR-FRET usually uses a lanthanide donor and a delayed reading to cut background.
Consider `COc1cc(N(CC2(C(F)(F)F)CC2)c2ccc(Cl)cc2)cnc1C(=O)C1CC1C(=O)O` (stereo not shown) [Example 3, 2-(5-((4-Chlorophenyl)((1-(trifluoromethyl)cyclopropyl)methyl)amino)-3-methoxypicolinoyl)cyclopropanecarboxylic acid], for which the IC50 was 149 nM.

Take `COCC1(CN(c2ccc(Cl)cc2)c2cnc(C(=O)C3CC3C(=O)O)c(OC)c2)CC1` (stereo not shown) [Example 4, 2-(5-((4-Chlorophenyl)((1-(methoxymethyl)cyclopropyl)methyl)amino)-3-methoxypicolinoyl)cyclopropanecarboxylic acid]: the concentration for half-maximal inhibition (IC50) is 263 nM.

With `COc1cc(N(CC2(C)CC2)c2ccc(Cl)cc2)cnc1C(=O)C1CC1C(=O)O` (stereo not shown) [Example 5, 2-(5-((4-Chlorophenyl)((1-methylcyclopropyl)methyl)amino)-3-methoxypicolinoyl)cyclopropanecarboxylic acid], the half-maximal inhibitory concentration (IC50) was determined as 38 nM. Turning to `COc1cc(N(CC2(C)CC2)c2ccc3c(c2)CCC3)cnc1C(=O)C1CC1C(=O)O` (stereo not shown) [Example 6, 2-(5-((2,3-Dihydro-1H-inden-5-yl)((1-methylcyclopropyl)methyl)amino)-3-methoxypicolinoyl)cyclopropanecarboxylic acid], the IC50 stood at 47 nM. Consider `COc1cc(N(CC2CC2)c2ccc(C)c3ncccc23)cnc1C(=O)C1CC1C(=O)O` (stereo not shown) [Example 8, 2-(5-((Cyclopropylmethyl)(8-methylquinolin-5-yl)amino)-3-methoxypicolinoyl)cyclopropanecarboxylic acid], for which the IC50 was determined as 279 nM. Under `COc1cc(N(CC2CC2)c2cccc3ccccc23)cnc1C(=O)C1CC1C(=O)O` (stereo not shown) [Example 9, 2-(5-((Cyclopropylmethyl)(naphthalen-1-yl)amino)-3-methoxypicolinoyl)cyclopropanecarboxylic acid] stands 24 nM.

Turning to `COc1cc(N(CC2CC2)c2ccc(C)c3ccccc23)cnc1C(=O)C1CC1C(=O)O` (stereo not shown) [Example 11, 2-(5-((Cyclopropylmethyl)(4-methylnaphthalen-1-yl)amino)-3-methoxypicolinoyl)cyclopropanecarboxylic acid], the concentration for half-maximal inhibition (IC50) stood at 35 nM. As to `COc1cc(N(CC2CC2)c2ccc3ccccc3c2)cnc1C(=O)C1CC1C(=O)O` (stereo not shown) [Example 12, 2-(5-((Cyclopropylmethyl)(naphthalen-2-yl)amino)-3-methoxypicolinoyl)cyclopropanecarboxylic acid], the IC50 came out at 28 nM. For `COc1cc(N(Cc2ccc(Cl)cc2)CC2CC2)cnc1C(=O)C1CC1C(=O)O` (stereo not shown) [Example 13, 2-(5-((4-Chlorobenzyl)(cyclopropylmethyl)amino)-3-methoxypicolinoyl)cyclopropanecarboxylic acid], the IC50 worked out at 34 nM. Under `COc1cc(N(Cc2ccc3ccccc3c2)CC2CC2)cnc1C(=O)C1CC1C(=O)O` (stereo not shown) [Example 17, 2-(5-((Cyclopropylmethyl)(naphthalen-2-ylmethyl)amino)-3-methoxypicolinoyl)cyclopropanecarboxylic acid] stands 34 nM; under `COc1cc(N(Cc2cccc(Cl)c2)CC2CC2)cnc1C(=O)C1CC1C(=O)O` (stereo not shown) [Example 18, 2-(5-((3-Chlorobenzyl)(cyclopropylmethyl)amino)-3-methoxypicolinoyl)cyclopropanecarboxylic acid], 39 nM.

For `COc1cc(N(Cc2ccc(F)cc2)CC2CC2)cnc1C(=O)C1CC1C(=O)O` (stereo not shown) [Example 19, 2-(5-((Cyclopropylmethyl)(4-fluorobenzyl)amino)-3-methoxypicolinoyl)cyclopropanecarboxylic acid], the 50% inhibitory concentration (IC50) came to 105 nM.

`COc1cc(N(Cc2cccc(C(F)(F)F)c2C)CC2CC2)cnc1C(=O)C1CC1C(=O)O` (stereo not shown) [Example 20, 2-(5-((Cyclopropylmethyl)(2-methyl-3-(trifluoromethyl)benzyl)amino)-3-methoxypicolinoyl)cyclopropanecarboxylic acid]: the half-maximal inhibitory concentration (IC50) was found to be 88 nM. With `COc1cc(N(Cc2cccc(C(F)(F)F)c2Cl)CC2CC2)cnc1C(=O)C1CC1C(=O)O` (stereo not shown) [Example 22, 2-(5-((2-Chloro-3-(trifluoromethyl)benzyl)(cyclopropylmethyl)amino)-3-methoxypicolinoyl)cyclopropanecarboxylic acid], the IC50 is 112 nM.

`COc1cc(N(Cc2c(C)ccc3ccccc23)CC2CC2)cnc1C(=O)C1CC1C(=O)O` (stereo not shown) [Example 23, 2-(5-((Cyclopropylmethyl)((2-methylnaphthalen-1-yl)methyl)amino)-3-methoxypicolinoyl)cyclopropanecarboxylic acid]: the IC50 stood at 1840 nM. Under `COc1cc(N(Cc2cccc(C)c2C)CC2CC2)cnc1C(=O)C1CC1C(=O)O` (stereo not shown) [Example 28, 2-(5-((Cyclopropylmethyl)(2,3-dimethylbenzyl)amino)-3-methoxypicolinoyl)cyclopropanecarboxylic acid] stands 67 nM; under `COc1cc(N(Cc2ccc(F)c(F)c2F)CC2CC2)cnc1C(=O)C1CC1C(=O)O` (stereo not shown) [Example 29, 2-(5-((Cyclopropylmethyl)(2,3,4-trifluorobenzyl)amino)-3-methoxypicolinoyl)cyclopropanecarboxylic acid], 370 nM. Regarding `COc1cc(N(Cc2ccc(F)c(Cl)c2F)CC2CC2)cnc1C(=O)C1CC1C(=O)O` (stereo not shown) [Example 30, 2-(5-((3-Chloro-2,4-difluorobenzyl)(cyclopropylmethyl)amino)-3-methoxypicolinoyl)cyclopropanecarboxylic acid], the concentration for half-maximal inhibition (IC50) was determined as 152 nM.

On to `COc1cc(N(Cc2cccc(C(F)(F)F)c2F)CC2CC2)cnc1C(=O)C1CC1C(=O)O` (stereo not shown) [Example 31, 2-(5-((Cyclopropylmethyl)(2-fluoro-3-(trifluoromethyl)benzyl)amino)-3-methoxypicolinoyl)cyclopropanecarboxylic acid], for which the IC50 came out at 331 nM. Turning to `COc1cc(N(Cc2c(F)ccc(C)c2F)CC2CC2)cnc1C(=O)C1CC1C(=O)O` (stereo not shown) [Example 32, 2-(5-((Cyclopropylmethyl)(2,6-difluoro-3-methylbenzyl)amino)-3-methoxypicolinoyl)cyclopropanecarboxylic acid], the IC50 stood at 1670 nM.

In the case of `COc1cc(N(Cc2ccc(C)c(F)c2F)CC2CC2)cnc1C(=O)C1CC1C(=O)O` (stereo not shown) [Example 33, 2-(5-((Cyclopropylmethyl)(2,3-difluoro-4-methylbenzyl)amino)-3-methoxypicolinoyl)cyclopropanecarboxylic acid], the IC50 stood at 185 nM. The value for `COc1cc(N(CC2CC2)c2ccc(C(F)(F)F)c3ccccc23)cnc1C(=O)C1CC1C(=O)O` (stereo not shown) [Example 34, 2-(5-((Cyclopropylmethyl)(4-(trifluoromethyl)naphthalen-1-yl)amino)-3-methoxypicolinoyl)cyclopropanecarboxylic acid] was 19 nM; that for `COc1cc(N(CC2CC2)c2ccc(C(F)(F)F)c3cccnc23)cnc1C(=O)C1CC1C(=O)O` (stereo not shown) [Example 35, 2-(5-((Cyclopropylmethyl)(5-(trifluoromethyl)quinolin-8-yl)amino)-3-methoxypicolinoyl)cyclopropanecarboxylic acid] was 229 nM; that for `COc1cc(N(CC2CC2)c2ccc3c4c(cccc24)CC3)cnc1C(=O)C1CC1C(=O)O` (stereo not shown) [Example 36, 2-(5-((Cyclopropylmethyl)(1,2-dihydroacenaphthylen-5-yl)amino)-3-methoxypicolinoyl)cyclopropanecarboxylic acid] was 9 nM. For `COc1cc(N(CC2CC2)c2cccc3c(C(F)(F)F)cccc23)cnc1C(=O)C1CC1C(=O)O` (stereo not shown) [Example 37, 2-(5-((Cyclopropylmethyl)(5-(trifluoromethyl)naphthalen-1-yl)amino)-3-methoxypicolinoyl)cyclopropanecarboxylic acid], the IC50 turned out to be 25 nM. For `COc1cc(N(CC2CC2)c2ccc3cccc4c3c2CC4)cnc1C(=O)C1CC1C(=O)O` (stereo not shown) [Example 38, 2-(5-((Cyclopropylmethyl)(1,2-dihydroacenaphthylen-3-yl)amino)-3-methoxypicolinoyl)cyclopropanecarboxylic acid], the half-inhibitory concentration (IC50) is 31 nM. Turning to `COc1cc(N(CC2CC2)c2ccc(Cl)cc2)cnc1C(=O)C1CC1C(=O)NS(=O)(=O)C1CC1` (stereo not shown) [Example 40, 2-(5-((4-Chlorophenyl)(cyclopropylmethyl)amino)-3-methoxypicolinoyl)-N-(cyclopropylsulfonyl)-cyclopropanecarboxamide], the concentration for half-maximal inhibition (IC50) is 356 nM. For `COc1ccc(S(=O)(=O)NC(=O)C2CC2C(=O)c2ncc(N(CC3CC3)c3ccc(Cl)cc3)cc2OC)cc1` (stereo not shown) [Example 41, 2-(5-((4-Chlorophenyl)(cyclopropylmethyl)amino)-3-methoxypicolinoyl)-N-((4-methoxyphenyl)sulfonyl)-cyclopropanecarboxamide], the IC50 was found to be 81 nM. As for `COc1cc(N(CC2CC2)c2ccc(Cl)cc2)cnc1C(=O)C1CC1C(=O)NS(=O)(=O)c1ccc(OC(F)(F)F)cc1` (stereo not shown) [Example 42, 2-(5-((4-Chlorophenyl)(cyclopropylmethyl)amino)-3-methoxypicolinoyl)-N-((4-(trifluoromethoxy)phenyl)-sulfonyl)cyclopropanecarboxamide], the IC50 was 277 nM. As for `COc1cc(N(CC2CC2)c2ccc(Cl)cc2)cnc1C(=O)C1CC1C(=O)NS(=O)(=O)c1ccccc1F` (stereo not shown) [Example 43, 2-(5-((4-Chlorophenyl)(cyclopropylmethyl)amino)-3-methoxypicolinoyl)-N-((2-fluorophenyl)sulfonyl)-cyclopropanecarboxamide], the half-maximal inhibitory concentration (IC50) is 74 nM. As to `COc1cc(N(CC2CC2)c2ccc(C)c3ccccc23)ccc1C(=O)C1CC1C(=O)O` (stereo not shown) [Example 45, 2-(4-((Cyclopropylmethyl)(4-methylnaphthalen-1-yl)amino)-2-methoxybenzoyl)cyclopropanecarboxylic acid], the IC50 came out at 62 nM.

Usually IC50 stands for the point on the concentration scale where inhibition reaches its midpoint.
